Earlier results, collected in patent US20220380769A1 (priority 2020, published 2022).

Test system: avian H5N1 influenza virus clades
Details: in vivo; cited from earlier work

Substance: rIn.r(C12U)n [Rintatolimod]
- protection from lethal challenge doses of three avian H5N1 influenza virus clades: able to protect
